Source: US20220119777A1, “CHEMILUMINESCENCE PHOTODYNAMIC VIRUS INACTIVATION OF RED BLOOD CELLS” (priority 2020, published 2022)

Tested on: bovine viral diarrhea virus (BVDV)
Test: Hypericin-Luciferase inactivation of BVDV spiked into human red blood cell concentrate, TCID50 titration (CPE)
Format: cell-based
Conditions: for Unwashed Titer / Unwashed VRF / Washed Titer / Combined VRF / Washed VRF: no luciferase system; for Unwashed Titer: RT 2 h dark; for Unwashed VRF / Washed VRF: vs RBC control; for Combined VRF: washed sample vs unwashed RBC control
Description: Ten different combinations of Dulbecco's modified eagle medium without calcium and magnesium (DMEM (—Ca++, —Mg++)), RBCC, virus, hypericin, luciferin, ATP and luciferase were prepared to all contain equivalent titers of BVDV calculated to be 6.48 log 10TCID50/mL based on the titer of the original virus stock. The concentrations of hypericin tested were 0, 40 and 200 μg/mL. Luciferase was tested at 0, 0.8 and 4.0 μM. Luciferin and ATP were present at 80 and 800 μM respectively when luciferase was present and absent in the absence of luciferase.
The components were mixed and incubated at room temperature (RT) for 2 hours in the dark followed by titration of unwashed and washed samples as previously described. Washing rows of wells with dilutions 1 and 2 was performed 3 days post-infection. Final cytopathic effects (CPEs) were read 10 days post-infection.
(§1) Eleven different combinations of DMEM (—Ca++, —Mg++), RBCC, virus, hypericin, luciferin, adenosine triphosphate (ATP) and luciferase were prepared to all contain equivalent titers of BVDV calculated to be 6.48 log 10TCID50/mL (logs) based on the titer of the original virus stock. The concentrations of hypericin tested were 10, 20 and 40 μg/mL. Luciferase was tested at 0.16, 0.32 and 0.8 μM. Luciferin and ATP were present at 80 and 800 μM, respectively.
The components were mixed and incubated at RT for 2 hours in the dark followed by titration of unwashed and washed samples as previously described. Washing of rows of wells with dilutions 1 and 2 was performed […] post-infection. Final CPE were read 10 days post-infection.
as §1, with “Ten” for “Eleven”, “log10 TCID50/mL” for “log 10TCID50/mL”, “40, 80” for “10, 20”, “120” for “40”
The compounds were mixed and incubated at RT for 2 hours in the dark followed by titration of unwashed and washed samples as previously described. Washing rows of wells with dilutions 1 and 2 was performed 2 days post-infection. Final CPEs were read 10 days post-infection.

[1] = Ex 1 HH-LN: hypericin 200 μg/mL
[2] = Ex 1 HH-LN: hypericin 200 μg/mL, washed
[3] = Ex 1 HL-LN: hypericin 40 μg/mL, washed

With Cc1cc(O)c2c(=O)c3c(O)cc(O)c4c5c(O)cc(O)c6c(=O)c7c(O)cc(C)c8c1c2c(c34)c(c78)c65 [Hypericin, hypericin] the “Unwashed Titer” value [1] was 3.10 log10TCID50/mL, the “Unwashed VRF” value [1] was 3.25 log TCID50 and the “Washed Titer” value [2] was 2.48 log10TCID50/mL. The “Combined VRF” value [1] was 3.87 log TCID50, the “Washed VRF” value [2] was 1.50 log TCID50 and the “Unwashed Titer” value (Ex 1 HL-LN: hypericin 40 μg/mL) was 3.48 log10TCID50/mL. For the same compound, the “Unwashed VRF” value (Ex 1 HL-LN: hypericin 40 μg/mL) was 2.87 log TCID50, the “Washed Titer” value [3] was <2.34 log10TCID50/mL and the “Combined VRF” value (Ex 1 HL-LN: hypericin 40 μg/mL) was >4.01 log TCID50. For the same compound, the “Washed VRF” value [3] was >1.64 log TCID50, the “VRFs, unwashed samples” value (Example 1, all hypericin treated unwashed samples, low (40 μg/mL) and high (200 μg/mL) doses) was ~3 logs and the “combined VRFs” value (Example 3, hypericin 40 μg/mL, all levels of luciferase, washed) was > 3.51 logs. For the same compound, the “VRF, washed samples” value (Example 3, hypericin dose of 40 μg/mL, all levels of luciferase, washed, complete inactivation/elimination) was > 1.14 logs and the “optimal dose of hypericin for BVDV” value (summary of Examples 1-3, with different doses of luciferase) was 40 µg/mL.
